US10759810B2 (AO “TATKHIMFARMPREPARATY”, priority 2016, dated 2020)
≈ marks a conversion by molar mass, not a printed value.

Experiments:
[1] = tested on: clinical freshly isolated strains of Staphylococcus aureus MRSA; test: Antibacterial activity (MIC), clinical MRSA strains overall; assay type: cell-based; conditions: in words, in almost all cases
Experimental: (§1) Measurement of antibacterial activity was carried out on the strains of Staphylococcus aureus ATCC 29213 (museum strain), Staphylococcus epidermidis (clinical isolate), Micrococcus luteus (clinical isolate), Bacillus subtilis 168 (museum strain), Escherichia coli ATCC 25922 (museum strain), Salmonella typhimurium TA100 (museum strain), Pseudomonas aeruginosa ATCC 27853 (museum strain). A comparative assessment of the spectrum of antibacterial action on reference strains and clinical isolates of gram-positive microorganisms was carried out using a micromethod for determining the minimum inhibitory concentration (MIC) using serial dilutions in Mueller-Hinton broth using 96-well sterile plates.
(§2) The first lowest concentration of the antibiotic (from a series of successive dilutions), where bacterial growth is not visually determined, is considered to be the minimum inhibitory concentration (MIC).
(§3) For the preparation of inoculum (infectious material used for artificial contamination), intended for the study of antibacterial activity, was used a pure daily culture of bacteria grown on a dense nutrient medium (agar LB medium). […] The inoculum was used for 15 minutes after preparation; the purity of the bacterial strains was monitored before each experiment. […]

[2] = tested on: gram-positive microorganisms; test: Antibacterial activity (MIC), gram-positive strains; assay type: cell-based; conditions: in words, versus comparison drugs
Experimental: as §1, §2, §3

S. aureus MRSA 1143 = test: MIC on clinical strain; assay type: cell-based, Staphylococcus aureus
Experimental: as §1, §2
(§4) For the preparation of inoculum (infectious material used for artificial contamination), intended for the study of antibacterial activity, was used a pure daily culture of bacteria grown on a dense nutrient medium (agar LB medium). In a sterile isotonic solution of sodium chloride, a suspension of microorganisms was prepared, adjusting the inoculum density to 0.5 according to the McFarland standard (1.5·10^8 CFU/ml). Then, the resulting inoculum was diluted to a concentration of 10^7 CFU/ml with LB-broth. The inoculum was used for 15 minutes after preparation; the purity of the bacterial strains was monitored before each experiment.
(§5) 100 μl of Muller-Hinton broth was added to the wells of each plate; the test base was introduced into the first well at a concentration of 128 μg/ml in a volume of 100 μl and its concentration was adjusted to 0.25 μg/ml by consecutive two-fold dilution. […] Each preparation in the experiment was titrated three times. […] In addition, the purity of nutrient media and solvents was monitored. The plates were incubated in a thermostat at […] for 24 hours.
(§6) The growth of cultures was assessed visually, comparing the growth of microorganisms in the presence of test compounds with the growth of culture without them.

S. aureus MRSA 981 = test: MIC on clinical strain; assay type: cell-based, Staphylococcus aureus
Experimental: as §1, §2, §4, §5, §6

S. aureus MRSA 967 = test: MIC on clinical strain; assay type: cell-based, Staphylococcus aureus
Experimental: as §1, §2, §4, §5, §6

S. aureus MRSA 1065 = test: MIC on clinical strain; assay type: cell-based, Staphylococcus aureus
Experimental: as §1, §2, §4, §5, §6

S. aureus MRSA 1131 = test: MIC on clinical strain; assay type: cell-based, Staphylococcus aureus
Experimental: as §1, §2, §4, §5, §6

S. aureus MRSA 1053 = test: MIC on clinical strain; assay type: cell-based, Staphylococcus aureus
Experimental: as §1, §2, §4, §5, §6

S. aureus MRSA 1163 = test: MIC on clinical strain; assay type: cell-based, Staphylococcus aureus
Experimental: as §1, §2, §4, §5, §6

S. aureus MRSA 2020 = test: MIC on clinical strain; assay type: cell-based, Staphylococcus aureus
Experimental: as §1, §2, §4, §5, §6

S. aureus MRSA 1168 = test: MIC on clinical strain; assay type: cell-based, Staphylococcus aureus
Experimental: as §1, §2, §4, §5, §6

S. aureus MRSA 1130 = test: MIC on clinical strain; assay type: cell-based, Staphylococcus aureus
Experimental: as §1, §2, §4, §5, §6

S. aureus MRSA 1173 = test: MIC on clinical strain; assay type: cell-based, Staphylococcus aureus
Experimental: as §1, §2, §4, §5, §6

S. aureus MRSA 983 = test: MIC on clinical strain; assay type: cell-based, Staphylococcus aureus
Experimental: as §1, §2, §4, §5, §6

[3] = tested on: gram-negative bacterial strains; test: Antibacterial activity (MIC), gram-negative strains; assay type: cell-based; conditions: in words
Experimental: as §1, §2, §3

ICR mice (CD-1) = test: General acute toxicity, fixed-dose method, intragastric administration; assay type: in vivo, mouse; conditions: for Number of animals in the group/number of dead animals / LD10 / LD16 / LD50 with confidence interval / LD84: mouse
Experimental: The acute toxicity of compound I-2 was studied using the fixed-dose method in ICR mice (CD-1) (6-8 weeks, 20-25 g) of both sexes, 6 animals per group. The starting dose for testing compound I-2 was 5000 mg/kg. The intragastric (oral) administration of compound I-2 to animals (<2.5 ml/100 g) using a gastric probe was used.

[4] = tested on: microorganism strains under study; test: Antibacterial activity (MIC), whole strain panel; assay type: cell-based; conditions: in words, from Table 1
Experimental: as §1, §2, §3

[5] = tested on: Salmonella typhimurium TA100 (museum strain); test: MIC, serial dilutions in Mueller-Hinton broth; assay type: cell-based
Experimental: as §1, §2, §4, §5, §6

[6] = tested on: Escherichia coli ATCC 25922 (museum strain); test: MIC, serial dilutions in Mueller-Hinton broth; assay type: cell-based
Experimental: as §1, §2, §4, §5, §6

[7] = tested on: Staphylococcus aureus ATCC 29213 (museum strain); test: MIC, serial dilutions in Mueller-Hinton broth; assay type: cell-based
Experimental: as §1, §2, §4, §5, §6

[8] = tested on: Pseudomonas aeruginosa ATCC 27853 (museum strain); test: MIC, serial dilutions in Mueller-Hinton broth; assay type: cell-based
Experimental: as §1, §2, §4, §5, §6

[9] = tested on: Staphylococcus epidermidis (clinical isolate); test: MIC, serial dilutions in Mueller-Hinton broth; assay type: cell-based
Experimental: as §1, §2, §4, §5, §6

[10] = tested on: Micrococcus luteus (clinical isolate); test: MIC, serial dilutions in Mueller-Hinton broth; assay type: cell-based
Experimental: as §1, §2, §4, §5, §6

[11] = tested on: Bacillus subtilis 168 (museum strain); test: MIC, serial dilutions in Mueller-Hinton broth; assay type: cell-based
Experimental: as §1, §2, §4, §5, §6

[12] = inoculum 10^7 CFU/ml, gram-negative
[13] = inoculum 10^7 CFU/ml, gram-positive

Cc1ncc(CN2CCN(c3cc4c(cc3F)c(=O)c(C(=O)O)cn4C3CC3)CC2)c(CO)c1O [Compound I-2, 1-cyclopropyl-6-fluoro-7-(4-((5-hydroxy-4-hydroxymethyl-6-methylpyridine-3-yl)methyl)piperazinyl)-4-oxo-1,4-dihydroquinolin-3-carboxylic acid]
MIC on clinical MRSA strains compared with ceftriaxone [1]: superior to ceftriaxone | antibacterial action with respect to gram-positive microorganisms [2]: comparable with the comparison drugs | The value of the MIC, S. aureus MRSA 1143 (S. aureus MRSA 1143; inoculum 10^7 CFU/ml): 32 mg/L | The value of the MIC, S. aureus MRSA 981 (S. aureus MRSA 981; inoculum 10^7 CFU/ml): 16 mg/L | The value of the MIC, S. aureus MRSA 967 (S. aureus MRSA 967; inoculum 10^7 CFU/ml): 16 mg/L | The value of the MIC, S. aureus MRSA 1065 (S. aureus MRSA 1065; inoculum 10^7 CFU/ml): 32 mg/L | The value of the MIC, S. aureus MRSA 1131 (S. aureus MRSA 1131; inoculum 10^7 CFU/ml): 16 mg/L | The value of the MIC, S. aureus MRSA 1053 (S. aureus MRSA 1053; inoculum 10^7 CFU/ml): 16 mg/L | The value of the MIC, S. aureus MRSA 1163 (S. aureus MRSA 1163; inoculum 10^7 CFU/ml): 0.5 mg/L | The value of the MIC, S. aureus MRSA 2020 (S. aureus MRSA 2020; inoculum 10^7 CFU/ml): 0.25 mg/L | The value of the MIC, S. aureus MRSA 1168 (S. aureus MRSA 1168; inoculum 10^7 CFU/ml): 0.25 mg/L | The value of the MIC, S. aureus MRSA 1130 (S. aureus MRSA 1130; inoculum 10^7 CFU/ml): 16 mg/L | The value of the MIC, S. aureus MRSA 1173 (S. aureus MRSA 1173; inoculum 10^7 CFU/ml): 16 mg/L | The value of the MIC, S. aureus MRSA 983 (S. aureus MRSA 983; inoculum 10^7 CFU/ml): 8 mg/L | antibacterial activity in relation to gram-negative bacterial strains [3]: low antibacterial activity | changes during the autopsy of mice (ICR mice (CD-1); end of experiment, pathomorphological dissection): No changes were observed | hazard class (ICR mice (CD-1); from acute toxicity in mice): 4 | behaviour after dosing (ICR mice (CD-1); mice of both sexes, 5000 mg/kg intragastric): slight inhibition of activity | death of animals (mortality) (ICR mice (CD-1); mice of both sexes, 5000 mg/kg intragastric, whole experiment): not observed | abnormalities during the observation period (ICR mice (CD-1); mice, 5000 mg/kg intragastric): no abnormalities were observed | time until animals began to take food and water (ICR mice (CD-1); mice, 5000 mg/kg intragastric): 1.5 to 2 h | time until behavior of animals returned to normal (ICR mice (CD-1); mice, 5000 mg/kg intragastric): 20 to 30 min | mean lethal dose (ICR mice (CD-1); mice, intragastric, up to 5000 mg/kg): not detected | Number of animals in the group/number of dead animals (ICR mice (CD-1); females, 5000 mg/kg intragastric): 6/0 | LD10 (ICR mice (CD-1); females, intragastric): >5000 mg/kg | LD16 (ICR mice (CD-1); females, intragastric): >5000 mg/kg | LD50 with confidence interval (ICR mice (CD-1); females, intragastric): >5000 mg/kg | LD84 (ICR mice (CD-1); females, intragastric): >5000 mg/kg | Number of animals in the group/number of dead animals (ICR mice (CD-1); males, 5000 mg/kg intragastric): 6/0 | LD10 (ICR mice (CD-1); males, intragastric): >5000 mg/kg | LD16 (ICR mice (CD-1); males, intragastric): >5000 mg/kg | LD50 with confidence interval (ICR mice (CD-1); males, intragastric): >5000 mg/kg | LD84 (ICR mice (CD-1); males, intragastric): >5000 mg/kg | antibacterial activity against the microorganism strains under study [4]: most active | MIC, S. typhimurium [5, 12]: 2 mg/L (≈ 4.14 µM) | MIC, E. coli [6, 12]: 2 mg/L (≈ 4.14 µM) | MIC, S. aureus [7, 13]: 2 mg/L (≈ 4.14 µM) | MIC, P. aerugenosa [8, 12]: >64 mg/L | MIC, S. epidermidis [9, 13]: 2 mg/L (≈ 4.14 µM) | MIC, M. luteus [10, 13]: 4 mg/L (≈ 8.29 µM) | MIC, B. subtilis [11, 13]: <2 mg/L

CN[C@H](CC(C)C)C(=O)N[C@H]1C(=O)N[C@@H](CC(N)=O)C(=O)N[C@H]2C(=O)N[C@H]3C(=O)N[C@H](C(=O)N[C@H](C(=O)O)c4cc(O)cc(O)c4-c4cc3ccc4O)[C@H](O)c3ccc(c(Cl)c3)Oc3cc2cc(c3O[C@@H]2O[C@H](CO)[C@@H](O)[C@H](O)[C@H]2O[C@H]2C[C@](C)(N)[C@H](O)[C@H](C)O2)Oc2ccc(cc2Cl)[C@H]1O [Vancomycin, vancomycin]
MIC (S. aureus MRSA 1143; Staphylococcus aureus, MRSA, read-out: The value of the MIC, S. aureus MRSA 1143): 1 mg/L (≈ 0.69 µM) | MIC (S. aureus MRSA 981; Staphylococcus aureus, MRSA, read-out: The value of the MIC, S. aureus MRSA 981): 2 mg/L (≈ 1.38 µM) | MIC (S. aureus MRSA 967; Staphylococcus aureus, MRSA, read-out: The value of the MIC, S. aureus MRSA 967): 4 mg/L (≈ 2.76 µM) | MIC (S. aureus MRSA 1065; Staphylococcus aureus, MRSA, read-out: The value of the MIC, S. aureus MRSA 1065): 1 mg/L (≈ 0.69 µM) | MIC (S. aureus MRSA 1131; Staphylococcus aureus, MRSA, read-out: The value of the MIC, S. aureus MRSA 1131): 0.5 mg/L (≈ 0.345 µM) | MIC (S. aureus MRSA 1053; Staphylococcus aureus, MRSA, read-out: The value of the MIC, S. aureus MRSA 1053): 2 mg/L (≈ 1.38 µM) | MIC (S. aureus MRSA 1163; Staphylococcus aureus, MRSA, read-out: The value of the MIC, S. aureus MRSA 1163): 2 mg/L (≈ 1.38 µM) | MIC (S. aureus MRSA 2020; Staphylococcus aureus, MRSA, read-out: The value of the MIC, S. aureus MRSA 2020): 0.5 mg/L (≈ 0.345 µM) | MIC (S. aureus MRSA 1168; Staphylococcus aureus, MRSA, read-out: The value of the MIC, S. aureus MRSA 1168): 0.5 mg/L (≈ 0.345 µM) | MIC (S. aureus MRSA 1130; Staphylococcus aureus, MRSA, read-out: The value of the MIC, S. aureus MRSA 1130): 1 mg/L (≈ 0.69 µM) | MIC (S. aureus MRSA 1173; Staphylococcus aureus, MRSA, read-out: The value of the MIC, S. aureus MRSA 1173): 2 mg/L (≈ 1.38 µM) | MIC (S. aureus MRSA 983; Staphylococcus aureus, MRSA, read-out: The value of the MIC, S. aureus MRSA 983): 2 mg/L (≈ 1.38 µM) | MIC ([5]; Salmonella enterica, TYPHIMURIUM, read-out: MIC, S. typhimurium): 64 mg/L (≈ 44.2 µM) | MIC ([6]; Escherichia coli, ATCC25922, read-out: MIC, E. coli): 64 mg/L (≈ 44.2 µM) | MIC ([7]; Staphylococcus aureus, ATCC29213, read-out: MIC, S. aureus): 4 mg/L (≈ 2.76 µM) | MIC ([8]; Pseudomonas aeruginosa, ATCC27853, read-out: MIC, P. aerugenosa): > 64 mg/L | MIC ([9]; Staphylococcus epidermidis, read-out: MIC, S. epidermidis): 4 mg/L (≈ 2.76 µM) | MIC ([10]; Micrococcus luteus, read-out: MIC, M. luteus): 4 mg/L (≈ 2.76 µM) | MIC ([11]; Bacillus subtilis, read-out: MIC, B. subtilis): 64 mg/L (≈ 44.2 µM)
